The results in this text go back to BindingDB's records for patent US20240246984 (Beijing Innocare Pharma Tech, 2024).

For assay [1], the target named is Tyrosine-protein kinase JAK2 (Homo sapiens, UniProt O60674). Kind of assay: JAK2 Activity Inhibition Assay. The procedure: The enzymatic activity of JAK2 was assessed by detecting the substrate phosphorylation level in a kinase reaction with a homogeneous time-resolved fluorescence (HTRF) kinase detection kit (Cisbio, 62TK0PEC). A reaction buffer contained an enzyme buffer (1×), 5 mM MgCl2, 1 mM DTT and 0.01% Brij35 from the kit; a human recombinant JAK2 protein (Carna Biosciences, 08-045) was diluted to a kinase reaction solution of 0.15 ng/μL with the reaction buffer; a substrate reaction solution contained 2.5 μM ATP and a biotin-labeled tyrosine kinase substrate diluted to 0.25 μM with the reaction buffer; a detection buffer contained 0.1 ng/μL Eu3+ labeled cage antibody (Cisbio, 61T66KLB) and 12.5 nM streptavidin-labeled XL665 (Cisbio, 610SAXLB) in the reaction buffer; the compound was dissolved to 10 μM in DMSO, followed by a serial 4-fold dilution with DMSO to a minimum concentration of 0.061 nM. Each concentration was further diluted 40-fold with the reaction buffer. To a 384-well assay plate (Corning, 3674) were added 4 μL of the compound solutions having a series of concentrations and 2 μL of JAK2 kinase reaction solutions. […] An Envision plate reader (Perkin Elmer) was then used to measure the progress of the reaction at wavelengths of 620 nm and 665 nm.
Tyrosine-protein kinase JAK2, sequence (O60674 whole entry): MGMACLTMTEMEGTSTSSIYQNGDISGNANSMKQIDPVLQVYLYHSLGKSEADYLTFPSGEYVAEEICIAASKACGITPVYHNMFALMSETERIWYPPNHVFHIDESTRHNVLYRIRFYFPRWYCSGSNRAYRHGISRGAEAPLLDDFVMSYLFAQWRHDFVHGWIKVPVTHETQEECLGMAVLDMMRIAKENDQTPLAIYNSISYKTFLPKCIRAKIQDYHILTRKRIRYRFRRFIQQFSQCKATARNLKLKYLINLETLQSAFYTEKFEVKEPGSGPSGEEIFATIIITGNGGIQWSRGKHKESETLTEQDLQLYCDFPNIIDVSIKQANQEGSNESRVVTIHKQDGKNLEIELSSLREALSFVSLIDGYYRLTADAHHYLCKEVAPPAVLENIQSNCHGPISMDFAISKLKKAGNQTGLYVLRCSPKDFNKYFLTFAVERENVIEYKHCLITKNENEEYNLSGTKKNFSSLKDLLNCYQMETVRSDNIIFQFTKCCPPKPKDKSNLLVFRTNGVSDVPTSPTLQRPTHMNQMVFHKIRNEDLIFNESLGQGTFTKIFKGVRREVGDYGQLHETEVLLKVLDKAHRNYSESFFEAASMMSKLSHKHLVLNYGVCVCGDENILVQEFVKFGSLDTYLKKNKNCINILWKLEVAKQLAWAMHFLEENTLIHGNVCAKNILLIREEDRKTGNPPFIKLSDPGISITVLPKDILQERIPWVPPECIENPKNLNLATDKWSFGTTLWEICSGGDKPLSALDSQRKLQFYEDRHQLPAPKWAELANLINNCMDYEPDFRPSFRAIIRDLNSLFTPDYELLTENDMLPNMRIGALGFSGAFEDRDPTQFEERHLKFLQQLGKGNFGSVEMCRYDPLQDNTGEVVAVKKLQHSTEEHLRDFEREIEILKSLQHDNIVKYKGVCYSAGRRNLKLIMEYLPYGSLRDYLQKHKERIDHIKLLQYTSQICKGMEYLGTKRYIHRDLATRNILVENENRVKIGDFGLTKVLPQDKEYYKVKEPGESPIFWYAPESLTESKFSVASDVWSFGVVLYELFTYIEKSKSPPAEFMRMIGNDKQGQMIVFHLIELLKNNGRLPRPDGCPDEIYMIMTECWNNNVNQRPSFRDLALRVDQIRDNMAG

Assay [2] concerns the target Non-receptor tyrosine-protein kinase TYK2 (Homo sapiens, UniProt P29597). Briefly: TYK2 Activity Inhibition Assay. As for the experimental part: The enzymatic activity of TYK2 was assessed by detecting the substrate phosphorylation level in a kinase reaction with a homogeneous time-resolved fluorescence (HTRF) kinase detection kit (Cisbio, 62TK0PEC). A reaction buffer contained an enzyme buffer (1×), 5 mM MgCl2, 1 mM DTT and 0.01% Brij35 from the kit; a human recombinant TYK2 protein (Carna Biosciences, 08-147) was diluted to a kinase reaction solution of 0.25 ng/μL with the reaction buffer; a substrate reaction solution contained 11.25 μM ATP and a biotin-labeled tyrosine kinase substrate diluted to 0.5 μM with the reaction buffer; a detection buffer contained 0.1 ng/μL Eu3+ labeled cage antibody (Cisbio, 61T66KLB) and 25 nM streptavidin-labeled XL665 (Cisbio, 610SAXLB) in the reaction buffer; the compound was dissolved to 10 μM in DMSO, followed by a serial 4-fold dilution with DMSO to a minimum concentration of 0.061 nM. Each concentration was further diluted 40-fold with the reaction buffer. To a 384-well assay plate (Corning, 3674) were added 4 μL of the compound solutions having a series of concentrations and 2 μL of kinase reaction solutions. After being mixed evenly, the mixtures were incubated at room temperature for 15 minutes, and then 4 μL of the substrate reaction solutions were added.

Non-receptor tyrosine-protein kinase TYK2, sequence (P29597 whole entry): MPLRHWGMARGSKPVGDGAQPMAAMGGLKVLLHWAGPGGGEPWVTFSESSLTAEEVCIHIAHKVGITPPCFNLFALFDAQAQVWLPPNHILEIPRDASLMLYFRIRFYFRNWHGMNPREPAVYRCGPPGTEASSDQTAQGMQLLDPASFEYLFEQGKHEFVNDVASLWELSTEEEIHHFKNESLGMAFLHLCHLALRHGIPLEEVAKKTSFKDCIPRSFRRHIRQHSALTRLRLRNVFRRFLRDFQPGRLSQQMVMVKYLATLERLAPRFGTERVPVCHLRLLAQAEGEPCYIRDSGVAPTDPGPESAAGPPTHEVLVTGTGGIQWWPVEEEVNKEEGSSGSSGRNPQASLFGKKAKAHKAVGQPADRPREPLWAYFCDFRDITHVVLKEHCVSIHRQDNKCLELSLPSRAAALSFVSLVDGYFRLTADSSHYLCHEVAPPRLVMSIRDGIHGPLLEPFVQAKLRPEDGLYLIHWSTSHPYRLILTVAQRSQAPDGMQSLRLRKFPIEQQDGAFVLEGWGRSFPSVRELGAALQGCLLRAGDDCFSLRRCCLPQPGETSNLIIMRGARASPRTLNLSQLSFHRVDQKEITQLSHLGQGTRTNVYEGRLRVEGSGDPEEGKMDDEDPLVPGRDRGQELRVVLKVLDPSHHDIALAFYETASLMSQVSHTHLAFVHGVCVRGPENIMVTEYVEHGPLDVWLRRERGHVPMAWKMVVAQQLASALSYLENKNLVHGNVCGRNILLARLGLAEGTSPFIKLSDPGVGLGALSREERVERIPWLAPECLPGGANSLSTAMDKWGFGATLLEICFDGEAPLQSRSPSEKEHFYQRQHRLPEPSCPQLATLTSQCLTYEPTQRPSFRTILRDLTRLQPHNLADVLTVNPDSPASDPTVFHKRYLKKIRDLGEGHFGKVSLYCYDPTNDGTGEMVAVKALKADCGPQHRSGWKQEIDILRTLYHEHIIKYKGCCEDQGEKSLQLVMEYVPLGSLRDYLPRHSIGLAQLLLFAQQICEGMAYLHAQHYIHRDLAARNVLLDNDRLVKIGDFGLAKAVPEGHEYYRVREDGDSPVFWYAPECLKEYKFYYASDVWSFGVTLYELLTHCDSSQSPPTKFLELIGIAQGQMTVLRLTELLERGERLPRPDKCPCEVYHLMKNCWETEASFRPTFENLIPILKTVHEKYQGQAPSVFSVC

Consider `O=C1NCCn2c(-c3c(F)cccc3F)nc(Nc3ccc(C(=O)N4CCOCC4)cc3)c21` [US20240246984, Compound 2.], for which the IC50 in assay [1] turned out to be 1.9 nM; in assay [2] it was 0.2 nM.
